{"source": "patent US20100297020A1", "about": "“PHOSPHORYLATED AND PHOSPHONATED PYRONE ANALOGS FOR THERAPEUTIC TREATMENT” (Limerick Biopharma, Inc., priority 2008, published 2010)", "key": {"AdenosineA1": {"target": "T1, AdenosineA1 (Homo sapiens, UniProt P30542)", "T1 sequence (P30542 1-326)": "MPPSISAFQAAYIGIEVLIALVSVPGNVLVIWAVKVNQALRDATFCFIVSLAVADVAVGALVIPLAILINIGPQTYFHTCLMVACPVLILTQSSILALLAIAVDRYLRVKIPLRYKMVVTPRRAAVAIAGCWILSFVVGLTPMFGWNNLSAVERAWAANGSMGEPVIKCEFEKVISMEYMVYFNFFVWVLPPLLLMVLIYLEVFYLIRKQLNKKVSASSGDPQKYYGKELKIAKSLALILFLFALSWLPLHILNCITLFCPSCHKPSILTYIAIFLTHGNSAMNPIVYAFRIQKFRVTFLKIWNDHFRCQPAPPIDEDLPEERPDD", "test": "AdenosineA1 GTPγS functional assay", "type": "biochemical", "settings": "10 μM; compound may be / can be tested", "experimental": "The compound is additionally tested in AdenosineA1, AdrenergicA2A, DopamineD25, Histamine H1-, and μ-Opiate GTPγS functional assays using a concentration of 10 μM.\nThe compound may be additionally tested in AdenosineA1, AdrenergicA2A, DopamineD25, Histamine H1-, and μ-Opiate GTPγS functional assays using a concentration of 10 μM.\nThe compound can be additionally tested in AdenosineA1, AdrenergicA2A, DopamineD25, Histamine H1-, and μ-Opiate GTPγS functional assays using a concentration of 10 μM."}, "male ZDF rats": {"system": "male ZDF rats", "test": "4 week study in ZDF rats (compound 2, compound 3)", "type": "in vivo", "from_the_text": "Seven week old male ZDF rats are used for the study.\nExperimental Design: This study is a 4 week study Using 32 7-week old male ZDF rats, divided into 4 treatment arms (8 rats/arm)."}, "ZDF rats": {"system": "ZDF rats", "test": "Pancreas histopathology, insulin staining and TUNEL in ZDF rats", "type": "in vivo", "from_the_text": "Pancreas samples from Example 26 are stored in 10% NBF and used in this study. All tissue samples were processed through graded alcohols, cleared in xylene and infiltrated and embedded into paraffin. For the pancreas four 4 micron sections were cut, one was stained with Hematoxylin and Eosin for histopathology, two were immunohistochemically stained with an antibody to insulin to determine beta cell mass and one was stained for apoptosis with the tunel technique.\nThe insulin staining procedure was performed as follows: Endogenous peroxidase activity was inhibited by incubation in 3% hydrogen peroxide. Non-specific staining was blocked with DAKO Protein Block Serum-Free (Dako, Carpinteria, Calif.). Insulin positive cells were immunohistochemically stained with a polyclonal guinea pig anti-swine insulin antibody at room temperature for 30 minutes (Dako, Carpinteria, Calif.). After incubation with primary antibody, the tissue sections were sequentially incubated with Envision+ HRP Rabbit (Dako, Carpinteria, Calif.). Staining was developed with Liquid DAB+ (Dako, Carpinteria, Calif.) and counterstained with hematoxylin.\nPancreas samples were stained for apoptosis as follows: 4 micron sections were cut and stained for TUNEL utilizing the following kit In Situ Cell Death Detection Kit, AP (Roche Applied Science, catalog 11 684 809 910)."}, "[1]": {"system": "rats treated with tacrolimus", "test": "Blood glucose in rats co-administered with tacrolimus", "type": "in vivo", "settings": "tacrolimus 0.5 mg/kg i.p. day 1-25; Compound 2 114 mg/kg i.p. day 11-25"}, "[2]": {"system": "rats treated with tacrolimus", "test": "Renal pathology in rats co-administered with tacrolimus", "type": "in vivo", "settings": "tacrolimus 0.5 mg/kg with vehicle or with Compound 2 at 11, 28 and 114 mg/kg, 25 days", "experimental": "Tissue is removed from the kidney of rats treated with tacrolimus (Prograf®) at 0.5 mg/kg and inert vehicle, and from rats treated with tacrolimus (Prograf®) at 0.5 mg/kg and quercetin-3′-O-methylphosphonate (Compound 2) at 11 mg/kg, 28 mg/kg, and at 114 mg/kg for 25 days. […] The tissue from rats treated with Compound 2 and tacrolimus show no vacuoles."}, "[3]": {"system": "BB19 cells, human BCECs (brain capillary endothelial cells)", "test": "Tacrolimus uptake assay", "type": "cell-based", "settings": "Endothelial cell, 1 h, 0.1 μM test compound, 1 hour incubation, 3H-tacrolimus 34 nM, read-out: cell associated ^3H-tacrolimus uptake, % of control", "experimental": "(§1) BB19 cells, human BCECs (brain capillary endothelial cells) immortalized with the E6E7 genes of human papilloma virus, were kindly provided from Jacques G. Prudhomme, Department of Biology, University of California, Riverside, U.S.A. The cells were cultured as monolayer culture in Amniomax™-C100 basal medium (catalog number 17001-157) with Amniomax™-C100 supplement (catalog number 12556-049) (Invitrogen, Basel, CH).\n(§2) Cells were seeded onto culture surfaces precoated with 10 μg/cm^2 rat tail collagen type I (BD Bioscience, Allschwil, CH) at a density of approximately 50′000 cells/cm^2 and were cultured in an incubator at 37° C. with 5% CO2, 95% fresh air and saturated humidity. For uptake assays, cells were seeded on precoated 96-well plates. Assays were performed at confluency, after 6 days in culture.\n(§3) BB19 cells were seeded 50′000 cells/cm^2 on 96-well plates (Falcon) and incubated under condition described above for 6 days. Before starting the assay, cells were washed 2 times with pre-warmed Dulbecco's MEM with Glutamax-I (catalog number 61965) (Invitrogen AG, Basel, CH), supplemented with 1% non essential amino acids, 1% sodium pyruvate, 50 μg/ml gentamycin (Invitrogen AG) (DMEM). Cells were then incubated for 15 min at 37° C. and 120 rpm in DMEM with or without the specified concentrations of test compounds under investigation. After this pre-incubation, cells were incubated in DMEM containing [propyl-3H]-dihydro-FK506 (3H-tacrolimus, 1 μCi/ml, 34 nM) and with or without the specified concentrations of test compounds for 1 hour at 37° C. and 120 rpm. During this 1-hour incubation period, influx and efflux of the substrate, ^3H-tacrolimus, occur. After the 1-hour incubation period, assay was terminated by placing the assay plate on ice and washing the cells twice with ice-cold DMEM. Determination of cell associated ^3H-tacrolimus was performed by addition of Insta Gel and scintillation liquid to trypsinized cells followed by analysis on a scintillation counter (Packard TriCarb2000, Can berra Packard S.A.). The results are expressed as: % of control=100×[^3H-tacrolimus conc. with test compound]/[^3H-tacrolimus conc. with vehicle]"}, "[4]": {"system": "BB19 cells, human BCECs (brain capillary endothelial cells)", "test": "Cyclosporin uptake assay", "type": "cell-based", "settings": "0.1 μM test compound; 1 hour incubation; 0.1 µM", "experimental": "as §1, §2, §3\nThe cyclosporin uptake assay was performed similarly as described above for tacrolimus uptake assay except that ^3H-cyclosporin was used in place of ^3H-tacrolimus."}, "[5]": {"test": "Stability in water at about pH 8", "settings": "water at about pH 8, 24 hours, ambient temperature", "protocol": "Quercetin-3′-O-phosphate is dissolved in water at about pH 8.\nFisetin-3′-O-phosphate is dissolved in water at about pH 8.\nQuercetin-3′-O-methylphosphonate (Compound 2) is dissolved in water at about pH 8."}, "[6]": {"settings": "following four weeks of daily treatment"}}}
{"smiles": "O=c1c(O)c(-c2ccc(O)c(OCP(=O)(O)O)c2)oc2cc(O)cc(O)c12", "note": "[Compound 2, Quercetin-3′-O-methylphosphonic acid]", "values": [{"measurement": "antagonist activity in the AdenosineA1 assay", "setting": "AdenosineA1", "result": 48, "unit": "%"}, {"measurement": "plasma insulin levels", "setting": "male ZDF rats; 4 weeks daily i.p., compared to vehicle treated animals", "result": "require lower insulin levels to maintain nomal glucose levels"}, {"measurement": "plasma glucose levels", "setting": "male ZDF rats; 4 weeks daily i.p., compound 2 100 mg/kg, compound 3 100 mg/kg day 4 and 5, 50 mg/kg day 6-28, rosiglitazone 6 mg/kg", "result": "maintains steady glucose levels"}, {"measurement": "glycated hemoglobin levels (% HbA1c) at termination", "setting": "male ZDF rats; compared to vehicle treated animals", "result": "lower glycated hemoglobin levels"}, {"measurement": "triglycerides", "setting": "male ZDF rats; day 14 and day 21, over vehicle controls", "result": "marked decreases in triglycerides"}, {"measurement": "islet cell apoptosis", "setting": "ZDF rats; TUNEL, following four weeks of daily treatment", "result": "decreases in islet cell apoptosis"}, {"measurement": "decrease in islet vacuolar degeneration (inhibition)", "setting": "ZDF rats; [6]", "result": 43, "unit": "%"}, {"measurement": "decrease in pancreatic inflammation (inhibition)", "setting": "ZDF rats; [6]", "result": 60, "unit": "%"}, {"measurement": "ratio of insulin positive islet cells to pancreas cells", "setting": "ZDF rats; insulin immunohistochemistry", "result": "significantly increased"}, {"measurement": "blood glucose level (tacrolimus induced hyperglycemia)", "setting": "[1]", "result": "attenuate tacrolimus induced hyperglycemia"}, {"measurement": "vacuolation of kidney tissue", "setting": "[2]", "result": "no vacuoles"}, {"measurement": "activity at 0.1 µM", "setting": "[3]", "result": 51, "unit": "%"}, {"measurement": "cell associated ^3H-cyclosporin uptake, % of control", "setting": "[4]", "result": "54 % of control"}, {"measurement": "degradation seen by NMR", "setting": "[5]", "result": "no degradation"}]}
